Tests used:
[1] = background statement; cited from earlier work
[2] = test system: postoperative pain after a bunionectomy; test: Phase 2 randomized, double-blind, placebo-controlled study in subjects undergoing bunionectomy; assay type: in vivo, human; settings: for reduction in opioid consumption: FIG. 3
Procedure: Compound 1 was investigated as a potential therapy for treatment of pain following bunionectomy. Compound 1 was administered (injected and instilled) directly into the postoperative wound during the surgery. This study is a follow-on placebo-controlled efficacy and safety study which includes assessments of wound healing and a PK study in enrolled subjects.
• This trial was designed to determine the efficacy of study treatment (Compound 1 vs. placebo) infiltrated/instilled during surgery in treating postoperative pain after a bunionectomy in the setting of multimodal analgesia in addition to a Mayo block with bupivacaine in the first 24 h (FIG. 1).
Protocol: This Phase 2, multi-center, randomized, double-blind, placebo-controlled, parallel design study evaluated a single dose of one of three Compound 1 dose groups vs. placebo injected during an elective BUNX with a multimodal analgesia regimen including an NSAID and regional Mayo block with bupivacaine. The study was conducted in two parts: • Inpatient period which continued to 96h after completion of study treatment injection (TO) or T96h. • Outpatient period which began on discharge from the inpatient unit through various follow visits to D29±2 (W4) after surgery, or if necessary for ongoing safety assessments, to D36±2 (W5).
Subjects underwent unilateral transpositional first metatarsal osteotomy for the correction of hallux valgus deformity (bunionectomy or BUNX). The surgery was performed under light to moderate sedation anesthesia (what constitutes this level of sedation and the additional anesthetic medications used per discretion of the anesthesiologist). In accordance with standard of care, light to moderate sedation was supplemented with a Mayo block to produce surgical anesthesia and postoperative analgesia. After administering light to moderate sedation, but prior to surgery, performed a Mayo block by infiltrating 0.5% bupivacaine hydrochloride (up to 30 mL total volume, 150 mg) at least 3 cm proximal to the “surgical site”. The Mayo block was performed at 15-30 minutes prior to study treatment dosing. “Surgical site” is defined as the area extending approximately 2-3 cm in all directions (lateral/medial/proximal/distal) from the incision site and surrounding tissues which may be affected by the infiltration of study treatment.
After the surgery, subjects were monitored for 96 hours in an inpatient unit. Safety and efficacy evaluations were performed. […] Subjects were required to meet certain pre-specified criteria prior to discharge.
T0 is the time that the study treatment injection/instillation is completed.
Following surgery, subjects were transferred to the appropriate recovery unit where they underwent various assessments over the next 96 hours (end of surgery [EOS] to T96h). In addition to the Mayo block noted above, a multimodal analgesia regimen included the following during the immediate postoperative period: • Ketorolac 30 mg IV (a non-steroidal anti-inflammatory drug (NSAID) to be administered intraoperatively before the end of surgery. Per investigator discretion, adjust the dose as necessary for subject age and medical condition. • Acetaminophen 1000 mg IV to be administered intraoperatively before the end of surgery.
After the non-opioid analgesics noted above has been administered, no additional NSAIDs or acetaminophen were administered during the inpatient phase of the study (through T96h). Additionally, the following rescue medication was able to be administered for any moderate to severe breakthrough pain during the inpatient period: • PO oxycodone 5 mg prn q2h in the first 12 hours after surgery for moderate or severe pain (≥4) as reported by subjects using the 0 to 10 numerical rating scale of current pain intensity (NRS). • PO oxycodone 5 mg prn q4h from 12 to 96 hours after surgery for moderate or severe pain (NRS≥4).
After surgery, subjects were monitored for 96 hours (through T96h) at the trial site as an inpatient.

[3] = test system: pain following TKA surgery; test: Phase 1/2 randomized, double-blind, placebo-controlled study in patients undergoing total knee arthroplasty (TKA); assay type: in vivo, human
Procedure: • This is a two-part, Phase 1/2, randomized, double-blind, placebo-controlled study. In Part A, 2 or more exploratory sequential dose-escalation cohorts will be evaluated, each with administration of a single dose of Compound 1 or placebo infiltrated/instilled during surgery in patients undergoing TKA (FIG. 5).
• 1. Cohort #1: total N=8 patients randomized 3:1 Compound 1 36 mg in 120 mL (0.3 mg/mL) or placebo 120 mL • 2. Cohort #2: total N=8 patients randomized 3:1 Compound 1 60 mg in 120 mL (0.5 mg/mL) or placebo 120 mL • 3. Cohort #2: total N=8 patients randomized 3:1 Compound 1 90 mg in 120 mL (0.75 mg/mL) or placebo 120 mL
• 1. Cohort #1: total N=˜97 patients randomized 2:1 Compound 1 36 mg in 120 mL (0.3 mg/mL) or placebo 120 mL • 2. Cohort #2: total N=˜97 patients randomized 2:1 Compound 1 60 mg in 120 mL (0.5 mg/mL) or placebo 120 mL
Subjects underwent unilateral total knee arthroplasty (replacement) (TKA). […]
Following surgery, patients were transferred to the PACU where they underwent an assessment of safety and efficacy over the next 96 (±4) hours. T0 is the time of admission into the PACU (as recorded in notes by the PACU nurse). The schedule of assessments was as follows: • Patients with inadequately controlled pain may request rescue at any time during T0 to D5; however, patients will be encouraged to receive rescue medication only with an NRS ≥4. • Pain intensity (assessed with NRS). • During the inpatient stay, NRS at rest beginning with the PACU admission was able to be assessed once the patient is awake. […] Scheduled NRS scores must be recorded regardless of timing of pre-rescue medication NRS scores and administration of rescue medication. The actual time of all NRS scores must be recorded, i.e., not the nominal time. • During the inpatient stay, evoked NRS twice daily after physical therapy (most preferred) or ambulation for approximately 10 yards (preferred) or transfers to/from bed or wheelchair. […]

[4] = test system: pain in subjects undergoing surgery to repair a ventral hernia; test: Randomized, double-blind, placebo-controlled study in subjects undergoing ventral hernia repair (laparotomy); assay type: in vivo, human
Procedure: Using the general delivery technique identified in Part A, this dose, concentration and volume will be assessed compared to a placebo in a pilot, double-blind, randomized, parallel-group design (see Figure). […] Study treatment was administered intraoperatively as a single administration via infiltration/instillation into the “surgical site” prior to wound closure. In general, the intent was to deliver local anesthetic into the surgical site “on the way in” (upon adequate exposure of and prior to incision/dissection of target tissues). […] The “surgical site” is defined as the area extending approximately at least 2-3 cm in all directions (lateral/medial/proximal/distal/deep) from the margins of substantially all tissue traumatized by the surgical procedure, i.e., all tissue dissected, cut, electrocauterized (bovied), sutured or tacked, including both deep and superficial areas. The surgical site include sthe full area of surgical mesh placement. […] The surgery was performed under general anesthesia with the following guidelines: • Inhaled anesthetic or propofol infusion with or without nitrous oxide (N20). • Adequate optional premedication typically with midazolam (up to 5 mg), fentanyl (up to 100 mcg), more can be given if indicated • Supplemental anesthesia and sedation will be per institutional guidelines Intra-operative titration of intravenous (IV) fentanyl, including during emergence, will be per institutional guidelines. In addition, patients received bupivacaine hydrochloride (BupiHCl) 175 mg delivered as follows: • Prior to start of surgery under ultrasound guidance: • BupiHCl 0.25%, 30 mL (75 mg) diluted with 10 mL of normal saline to a volume of 40 mL delivered as a rectus block with 20 mL on each side. • Immediately before/after surgical incision: • BupiHCl 0.25%, 40 mL (100 mg), may be diluted in up to 110 mL of normal saline to a total volume of not more than 150 mL: Infiltration of abdominal wall, anterior rectus abdominis sheath, posterior rectus abdominis sheath, other fascia, peritoneum (including circumferential areas of intended mesh placement) Standard supplemental anesthetic and perioperative care was provided per institutional guidelines. This typically included (but not be limited to) steps to ensure preservation of intraoperative normothermia (including the use of preoperative and intraoperative forced-air warming) and deep venous thrombosis prophylaxis. Patients received general anesthesia and bilateral rectus blocks. […]

[5] = Aqueous solubility (descriptive statement); assay type: physicochemical
[6] = bunionectomy, 4.2 mg (0.3 mg/mL)

Compound | solubility in aqueous media or local anesthetic solutions [1] | pain reduction ([2]; bunionectomy, 0.15 mg/mL (2.1 mg), FIG. 2) | reduction in opioid consumption ([2]; bunionectomy, 2.1 mg (0.15 mg/mL)) | reduction in pain [2, 6] | reduction in opioid consumption [2, 6] | persistence of analgesic effect ([2]; bunionectomy, 4.2 mg, FIG. 4) | dose of maximum analgesic effect ([2]; bunionectomy, concentration of 0.3 mg/mL) | reductions of pain and opioid consumption ([2]; single administration during surgery, bunionectomy patients) | reductions in pain ([3]; 36 mg (0.3 mg/mL), FIG. 7) | reduction in opioid consumption ([3]; 36 mg (0.3 mg/mL), FIG. 8) | analgesic activity ([3]; 60 mg (0.5 mg/mL), compared with 36 mg) | reductions in pain ([4]; 36 mg (0.3 mg/mL)) | reduction in pain at rest compared to placebo ([4]; 36 mg (0.3 mg/mL), FIG. 9) | reduction in pain with coughing compared to placebo ([4]; 36 mg (0.3 mg/mL), FIG. 9) | reduction in opioid consumption compared to placebo ([4]; FIG. 9) | water solubility [5]
COc1cc(CNC(=O)CCCC/C=C/C(C)C)ccc1O [Capsaicin] | virtually insoluble | – | – | – | – | – | – | – | – | – | – | – | – | – | – | –
CNCC1CCCCN1C(=O)Oc1ccc(CNC(=O)CCCC/C=C/C(C)C)cc1OC (stereo not shown) [Compound 1, (E)-2-methoxy-4-((8-methylnon-6-enamido)methyl)phenyl 2-((methylamino)methyl)piperidine-1-carboxylate] | – | trend in pain reduction | statistically significant reduction in opioid consumption | statistically significant reduction in pain | statistically significant reduction in opioid consumption | ≥ 15 days | 4.2 mg | long lasting reductions of pain and opioid consumption | long lasting reductions in pain | significant reduction in opioid consumption | lower analgesic activity which was of a shorter duration | long lasting reductions in pain | 21% | 46% | 26% | highly water-soluble

— US20240058316A1, “PRODRUG OF A PHENOLIC TRPV1 AGONIST FOR THE TREATMENT OF PAIN” (Concentric Analgesics, Inc., priority 2020, published 2024)
